According to US7462600B2, “Macrolides” (Pfizer Inc, priority 2004, dated 2008):
Converted amounts (≈) assume the structure as drawn.

Experiments:
Assay type in all cases: cell-based
[1] = system: Streptococcus pyogenes 1079; test: MIC, microtiter broth dilution (NCCLS M100-S14), S. pyogenes 1079 (ermB); details: Streptococcus pyogenes 1079
Summary of the method: (§1)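 Compounds were first dissolved in DMSO (40 mg/ml stock), then tested by broth dilution in microtiter trays. MICs were interpreted using the 14th Informational Supplement (M100-S14) criteria.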

[2] = system: Streptococcus pneumoniae 1016; test: MIC, microtiter broth dilution (NCCLS M100-S14), S. pneumoniae 1016 (susceptible); details: Streptococcus pneumoniae 1016
Summary of the method: as §1

[3] = system: Streptococcus pneumoniae 1095; details: Streptococcus pneumoniae 1095; microtiter broth dilution
Summary of the method: as §1

[4] = system: Streptococcus pneumoniae 1175; details: Streptococcus pneumoniae 1175; microtiter broth dilution
Summary of the method: as §1

[5] = system: Haemophilus influenzae 1218; test: MIC, microtiter broth dilution (NCCLS M100-S14), H. influenzae 1218 (susceptible); details: Haemophilus influenzae 1218
Summary of the method: as §1

## CCC1OC(=O)C(C)C(=O)C(C)C(OC2OC(C)CC(N(C)C)C2O)C(C)(OC)CC(C)C(=O)C(C)C2N(C3CN(Cc4ccnc(-c5nc(C)no5)c4)C3)C(=O)OC12C (stereo not drawn) [Example 1.46, (2-[3-methyl-(1,2,4)oxadiazol-5-yl]pyridin-4-yl)methyl]
[1]
  MIC S. pyogenes 1079: >64.00 µg/mL
[2]
  MIC S. pneumo. 1016: <0.06 µg/mL
[3]
  MIC S. pneumo. 1095: <0.06 µg/mL
[4]
  MIC S. pneumo. 1175: 0.25 µg/mL (≈ 0.297 µM)
[5]
  MIC H. influenzae 1218: 8 µg/mL (≈ 9.51 µM)

## CC[C@H]1OC(=O)[C@H](C)C(=O)[C@H](C)[C@@H](O[C@@H]2O[C@H](C)C[C@H](N(C)C)[C@H]2O)[C@](C)(OC)C[C@@H](C)C(=O)[C@H](C)[C@H]2N(CC3(C)CN(Cc4c[nH]c5ncccc45)C3)C(=O)O[C@]12C [6.03]
[1]
  MIC S. pyogenes 1079: 16 µg/mL (≈ 19.4 µM)
[2]
  MIC S. pneumo. 1016: <0.06 µg/mL
[3]
  MIC S. pneumo. 1095: <0.06 µg/mL
[4]
  MIC S. pneumo. 1175: 0.12 µg/mL (≈ 0.145 µM)
[5]
  MIC H. influenzae 1218: 0.5 µg/mL (≈ 0.605 µM)

## CCC1OC(=O)C(C)C(=O)C(C)C(OC2OC(C)CC(N(C)C)C2O)C(C)(OC)CC(C)C(=O)C(C)C2N(C3CN(S(=O)(=O)c4c(C)n[nH]c4C)C3)C(=O)OC12C (stereo not drawn) [Example 3.29, 3-descladinosyl-11,12-dideoxy-6-O-methyl-3-oxo-12,11-(oxycarbonyl-(1-(3,5-dimethyl-1H-pyrazole-4-sulfony)-azetidin-3-yl)-imino)-erythromycin A]
[1]
  MIC S. pyogenes 1079: 8 µg/mL (≈ 9.68 µM)
[2]
  MIC S. pneumo. 1016: <0.06 µg/mL
[3]
  MIC S. pneumo. 1095: <0.06 µg/mL
[4]
  MIC S. pneumo. 1175: 0.5 µg/mL (≈ 0.605 µM)
[5]
  MIC H. influenzae 1218: 0.25 µg/mL (≈ 0.303 µM)

## CCC1OC(=O)C(C)C(=O)C(C)C(OC2OC(C)CC(N(C)C)C2O)C(C)(OC)CC(C)C(=O)C(C)C2N(CC3CN(C(=O)c4ccnc5ccccc45)C3)C(=O)OC12C.O=CO (stereo not drawn) [4.37]
[1]
  MIC S. pyogenes 1079: >64.00 µg/mL
[2]
  MIC S. pneumo. 1016: <0.06 µg/mL
[3]
  MIC S. pneumo. 1095: 0.25 µg/mL
[4]
  MIC S. pneumo. 1175: <0.06 µg/mL
[5]
  MIC H. influenzae 1218: 0.5 µg/mL

## CCC1OC(=O)C(C)C(=O)C(C)C(OC2OC(C)CC(N(C)C)C2O)C(C)(OC)CC(C)C(=O)C(C)C2N(C3CN(Cc4ccc5nccnc5c4)C3)C(=O)OC12C (stereo not drawn) [Example 1.28, 3-descladinosyl-11,12-dideoxy-6-O-methyl-3-oxo-12,11-(oxycarbonyl-(1-((quinoxalin-6-yl)-methyl)-azetidin-3-yl)-imino)-erythromycin A]
[1]
  MIC S. pyogenes 1079: 8 µg/mL (≈ 9.88 µM)
[2]
  MIC S. pneumo. 1016: <0.06 µg/mL
[3]
  MIC S. pneumo. 1095: <0.06 µg/mL
[4]
  MIC S. pneumo. 1175: 4 µg/mL (≈ 4.94 µM)
[5]
  MIC H. influenzae 1218: 0.5 µg/mL (≈ 0.617 µM)

## CCC1OC(=O)C(C)C(=O)C(C)C(OC2OC(C)CC(N(C)C)C2O)C(C)(OC)CC(C)C(=O)C(C)C2N(C3CN(S(=O)(=O)c4cncc(-c5cnco5)c4)C3)C(=O)OC12C (stereo not drawn) [Example 3.75]
[1]
  MIC S. pyogenes 1079: 16 µg/mL (≈ 18.3 µM)
[2]
  MIC S. pneumo. 1016: <0.06 µg/mL
[3]
  MIC S. pneumo. 1095: <0.06 µg/mL
[4]
  MIC S. pneumo. 1175: <0.06 µg/mL
[5]
  MIC H. influenzae 1218: 1 µg/mL (≈ 1.14 µM)

## CCC1OC(=O)C(C)C(=O)C(C)C(OC2OC(C)CC(N(C)C)C2O)C(C)(OC)CC(C)C(=O)C(C)C2N(C3CN(S(=O)(=O)c4ccc(C#N)nc4)C3)C(=O)OC12C (stereo not drawn) [Example 3.48, 6-cyanopyridine-3-sulfonyl]
[1]
  MIC S. pyogenes 1079: >64.00 µg/mL
[2]
  MIC S. pneumo. 1016: <0.06 µg/mL
[3]
  MIC S. pneumo. 1095: 1 µg/mL (≈ 1.2 µM)
[4]
  MIC S. pneumo. 1175: <0.06 µg/mL
[5]
  MIC H. influenzae 1218: 0.5 µg/mL (≈ 0.6 µM)

## CCC1OC(=O)C(C)C(=O)C(C)C(OC2OC(C)CC(N(C)C)C2O)C(C)(OC)CC(C)C(=O)C(C)C2N(C3CN(S(=O)(=O)c4ccc(OC)c5ncccc45)C3)C(=O)OC12C (stereo not drawn) [Example 3.101, 3-descladinosyl-11,12-dideoxy-6-O-methyl-3-oxo-12,11-(oxycarbonyl-(1-(8-methoxyquinoline-5-sulfonyl)-azetidin-3-yl)-imino)-erythromycin A]
[1]
  MIC S. pyogenes 1079: <0.063 µg/mL
[2]
  MIC S. pneumo. 1016: <0.063 µg/mL
[3]
  MIC S. pneumo. 1095: <0.063 µg/mL
[4]
  MIC S. pneumo. 1175: <0.063 µg/mL
[5]
  MIC H. influenzae 1218: 0.125 µg/mL (≈ 0.141 µM)

## CCC1OC(=O)C(C)C(=O)C(C)C(OC2OC(C)CC(N(C)C)C2O)C(C)(OC)CC(C)C(=O)C(C)C2N(C3CN(Cc4c(C)ccc5ccccc45)C3)C(=O)OC12C (stereo not drawn) [Example 1.92, 3-descladinosyl-11,12-dideoxy-6-O-methyl-3-oxo-12,11-(oxycarbonyl-(1-(2-methylnaphthalene-1-methyl)-azetidin-3-yl)-imino)erythromycin A]
[1]
  MIC S. pyogenes 1079: 2 µg/mL (≈ 2.43 µM)
[2]
  MIC S. pneumo. 1016: <0.063 µg/mL
[3]
  MIC S. pneumo. 1095: 0.125 µg/mL (≈ 0.152 µM)
[4]
  MIC S. pneumo. 1175: <0.063 µg/mL
[5]
  MIC H. influenzae 1218: 2 µg/mL (≈ 2.43 µM)
